Experimental findings from US9073926B2, “Heterocyclic compounds containing a pyrrolopyridine or benzimidazole core” (Boehringer Ingelheim International GmbH, priority 2009, dated 2015) are described below.

Sequence of Human RSK2 (P51812 whole entry): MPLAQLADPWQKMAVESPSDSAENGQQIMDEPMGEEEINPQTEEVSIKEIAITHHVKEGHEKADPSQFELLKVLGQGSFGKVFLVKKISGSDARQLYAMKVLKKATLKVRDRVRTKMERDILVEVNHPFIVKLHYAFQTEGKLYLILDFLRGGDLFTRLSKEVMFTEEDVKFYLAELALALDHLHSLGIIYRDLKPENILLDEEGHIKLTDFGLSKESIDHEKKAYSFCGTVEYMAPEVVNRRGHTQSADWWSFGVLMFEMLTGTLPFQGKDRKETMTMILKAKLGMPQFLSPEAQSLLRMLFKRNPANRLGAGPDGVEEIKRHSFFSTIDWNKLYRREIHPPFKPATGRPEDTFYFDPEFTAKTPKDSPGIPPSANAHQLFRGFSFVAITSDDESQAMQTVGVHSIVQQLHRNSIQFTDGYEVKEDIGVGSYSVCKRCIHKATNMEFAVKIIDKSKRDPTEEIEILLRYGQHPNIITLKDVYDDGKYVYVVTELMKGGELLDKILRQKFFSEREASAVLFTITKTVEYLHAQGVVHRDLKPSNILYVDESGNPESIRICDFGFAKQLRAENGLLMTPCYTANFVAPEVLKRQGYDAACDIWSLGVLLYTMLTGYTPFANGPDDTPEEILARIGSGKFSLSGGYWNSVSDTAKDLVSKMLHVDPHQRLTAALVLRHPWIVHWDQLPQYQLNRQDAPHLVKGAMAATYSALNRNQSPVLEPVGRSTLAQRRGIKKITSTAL

The target in the test is Human RSK2 (Homo sapiens (Human), UniProt P51812). The experiment in a line: Human RSK2 Assay (Kinase Glo Plus, residual ATP). It counts as biochemical. The settings on record: 0.75 nM His-RSK2, 0.75 μM ATP, 1.0 μM S6 Kinase/RSK Substrate Peptide 1. As for the experimental part:
Experimental Method A: Human RSK2 Assay
Compounds are assessed for their ability to inhibit the phosphorylation of a substrate peptide by RSK2.
Human RSK2 protein, purchased from Invitrogen, is used to measure kinase activity utilizing Kinase Glo Plus (Promega) a homogeneous assay technology, which uses a luciferin-luciferase based ATP detection reagent to quantify residual ATP. The assay is performed using 0.75 nM His-RSK2, 0.75 μM ATP and 1.0 μM S6 Kinase/RSK Substrate Peptide 1 (Upstate, catalog #12-124), in assay buffer consisting of 25 mM HEPES, pH 7.5, 10 mM MgCl2, 5 mM MnCl2, 50 mM KCl, 0.2% BSA, 0.01% CHAPS, 100 μM Na3VO4, 0.5 mM DTT, and 1% DMSO. Solutions of test compounds at various concentrations are prepared by 1:3 fold serial dilution of a 1 mM solution of compound in DMSO. The DMSO solutions are further diluted with assay buffer to a final concentration of DMSO of 5%.
The assay is performed in a 384 well, white, non-binding plate (Corning, catalogue #3574). Solutions of test compounds (10 μL) are transferred to a dry assay plate, followed by addition of 20 μL kinase and 20 μL ATP+Substrate Peptide 1 described above. The kinase reaction mixture is incubated for 90 minutes at 28° C. followed by addition of 30 μL of ATP detection reagent for 15 minutes at room temperature. The relative light unit (RLU) signal is measured on a LJL Analyst (Molecular Devices) in luminescence mode using 384 aperture. The RLU signals were converted to percent of control (POC) values using the formula: POC=100*(BCTRL−Signal)/(BCTRL−PCTRL), where Signal is the test well RLU signal, BCTRL is the average of background (negative control), which consists of ATP+peptide and compound buffer, well signals on the plate, and PCTRL is the average of positive control, which consists of kinase, ATP+peptide, and compound buffer, well signals on the plate. For concentration-responsive compounds, POC as a function of test compound concentration are fitted to a 4-parameter logistic equation of the form: Y=A+(B−A)/[1+(x/C)^D], where A, B, C, and D are fitted parameters (parameter B is fixed at zero POC), and x and y are the independent and dependent variables, respectively. The IC50 (50% inhibitory concentration) is determined as the inflection point parameter, C. Experimental Method B: Human RSK2 Trans-Reporter Assay
Consider `Cn1cc(NC(=O)c2ccc3cc4n(c3n2)CC(C)(C)CNC4=O)cn1` [Example 42, 9,9-dimethyl-N-(1-methyl-1H-pyrazol-4-yl)-6-oxo-7,8,9,10-tetrahydro-6H-pyrido[3′,2′:4,5]pyrrolo[1,2-a][1,4]diazepine-2-carboxamide], for which the IC50 came out at 0.072 µM.

In the case of `C[C@@H]1CNC(=O)c2cc3ccc(C(=O)Nc4cnn(Cc5ccccc5)c4)nc3n21` [Example 59, (9R)-N-(1-benzyl-1H-pyrazol-4-yl)-9-methyl-6-oxo-6,7,8,9-tetrahydropyrido[3′,2′:4,5]pyrrolo[1,2-a]pyrazine-2-carboxamide], the IC50 stood at 0.0002 µM. The figure for `Cc1nc(-c2cccc(NC(=O)c3ccc4nc5n(c4c3)CCCNC5=O)c2)cs1` [Example 7, N-[3-(2-methyl-1,3-thiazol-4-yl)phenyl]-1-oxo-2,3,4,5-tetrahydro-1H-[1,4]diazepino[1,2-a]benzimidazole-8-carboxamide] is 1.7 µM.

`Cc1cc(NC(=O)c2ccc3cc4n(c3n2)CC(C)(C)CNC4=O)no1` [Example 91, 9,9-dimethyl-N-(5-methyl-1,2-oxazol-3-yl)-6-oxo-7,8,9,10-tetrahydro-6H-pyrido[3′,2′:4,5]pyrrolo[1,2-a][1,4]diazepine-2-carboxamide]: the IC50 is 0.395 µM. Turning to `O=C(Nc1cnn(Cc2ccccc2)c1)c1ccc2cc3n(c2n1)CCCNC3=O` [Example 47, N-(1-benzyl-1H-pyrazol-4-yl)-6-oxo-7,8,9,10-tetrahydro-6H-pyrido[3′,2′:4,5]pyrrolo[1,2-a][1,4]diazepine-2-carboxamide], the IC50 is 0.0038 µM.

Take `CC1CCNC(=O)c2cc3ccc(C(=O)Nc4nc5ccccc5n4CCCN(C)C)nc3n21` (stereo not shown) [Example 70, N-{[3-(dimethylamino)propyl]-1H-benzimidazol-2-yl}-10-methyl-6-oxo-7,8,9,10-tetrahydro-6H-pyrido[3′,2′:4,5]pyrrolo[1,2-a][1,4]diazepine-2-carboxamide]: the IC50 is 0.027 µM. Turning to `O=C(Nc1cnc2c(cnn2C2CCOCC2)c1)c1ccc2cc3n(c2n1)CCCNC3=O` [Example 33, 6-oxo-N-[1-(tetrahydro-2H-pyran-4-yl)-1H-pyrazolo[3,4-b]pyridin-5-yl]-7,8,9,10-tetrahydro-6H-pyrido[3′,2′:4,5]pyrrolo[1,2-a][1,4]diazepine-2-carboxamide], the IC50 stood at 0.02 µM. As for `CC1(C)CNC(=O)c2cc3ccc(C(=O)Nc4nc5cc(Cl)ccc5[nH]4)nc3n2C1` [Example 50, N-(5-chloro-1H-benzimidazol-2-yl)-9,9-dimethyl-6-oxo-7,8,9,10-tetrahydro-6H-pyrido[3′,2′:4,5]pyrrolo[1,2-a][1,4]diazepine-2-carboxamide], the figure is 0.055 µM; as for `CC1CCNC(=O)c2cc3ccc(C(=O)Nc4cnn(C(C)(C)C)c4)nc3n21` (stereo not shown) [Example 43, N-(1-tert-butyl-1H-pyrazol-4-yl)-10-methyl-6-oxo-7,8,9,10-tetrahydro-6H-pyrido[3′,2′:4,5]pyrrolo[1,2-a][1,4]diazepine-2-carboxamide], 0.0011 µM.

For the compound `CC1CCNC(=O)c2cc3ccc(C(=O)Nc4cnc5c(cnn5C5CCOCC5)c4)nc3n21` (stereo not shown) [Example 32, 10-methyl-6-oxo-N-[1-(tetrahydro-2H-pyran-4-yl)-1H-pyrazolo[3,4-b]pyridin-5-yl]-7,8,9,10-tetrahydro-6H-pyrido[3′,2′:4,5]pyrrolo[1,2-a][1,4]diazepine-2-carboxamide], the IC50 was determined as 0.0023 µM. As for `O=C(Nc1cnc2ccccc2c1)c1ccc2cc3n(c2n1)CCCNC3=O` [Example 23, 6-oxo-N-(quinolin-3-yl)-7,8,9,10-tetrahydro-6H-pyrido[3′,2′:4,5]pyrrolo[1,2-a][1,4]diazepine-2-carboxamide], the figure is 0.0092 µM; as for `CC1(C)CNC(=O)c2cc3ccc(C(=O)Nc4cc(C5CC5)on4)nc3n2C1` [Example 90, N-(5-cyclopropyl-1,2-oxazol-3-yl)-9,9-dimethyl-6-oxo-7,8,9,10-tetrahydro-6H-pyrido[3′,2′:4,5]pyrrolo[1,2-a][1,4]diazepine-2-carboxamide], 0.043 µM. As for `C[C@H]1CNC(=O)c2cc3ccc(C(=O)Nc4cnn(Cc5ccccc5)c4)nc3n21` [Example 60, (9S)-N-(1-benzyl-1H-pyrazol-4-yl)-9-methyl-6-oxo-6,7,8,9-tetrahydropyrido[3′,2′:4,5]pyrrolo[1,2-a]pyrazine-2-carboxamide], the figure is 0.012 µM; as for `C[C@H]1NC(=O)c2cc3ccc(C(=O)Nc4cc(Cc5ccccc5)on4)nc3n2[C@H]1C` (relative stereo) [Example 99, N-(5-benzyl-1,2-oxazol-3-yl)-cis-8,9-dimethyl-6-oxo-6,7,8,9-tetrahydropyrido[3′,2′:4,5]pyrrolo[1,2-a]pyrazine-2-carboxamide], 0.0051 µM; as for `CC(C)n1ncc2cc(NC(=O)c3ccc4nc5n(c4c3)CCCNC5=O)cnc21` [Example 11, 1-oxo-N-[1-(propan-2-yl)-1H-pyrazolo[3,4-b]pyridin-5-yl]-2,3,4,5-tetrahydro-1H-[1,4]diazepino[1,2-a]benzimidazole-8-carboxamide], 0.87 µM.

`CC(C)(C)c1cc(NC(=O)c2ccc3cc4n(c3n2)CCCNC4=O)no1` [Example 79, N-(5-tert-butyl-1,2-oxazol-3-yl)-6-oxo-7,8,9,10-tetrahydro-6H-pyrido[3′,2′:4,5]pyrrolo[1,2-a][1,4]diazepine-2-carboxamide]: the IC50 was found to be 0.019 µM. The figure for `CC(C)n1ncc2cc(NC(=O)c3ccc4cc5n(c4n3)[C@H](C)CNC5=O)cnc21` [Example 66, (9R)-9-methyl-6-oxo-N-[1-(propan-2-yl)-1H-pyrazolo[3,4-b]pyridin-5-yl]-6,7,8,9-tetrahydropyrido[3′,2′:4,5]pyrrolo[1,2-a]pyrazine-2-carboxamide] is 0.004 µM; for `O=C(Nc1cc(-c2ccccc2)no1)c1ccc2cc3n(c2n1)CCCNC3=O` [Example 81, 6-oxo-N-(3-phenyl-1,2-oxazol-5-yl)-7,8,9,10-tetrahydro-6H-pyrido[3′,2′:4,5]pyrrolo[1,2-a][1,4]diazepine-2-carboxamide] it is 0.0043 µM. For `CCn1c(NC(=O)c2ccc3cc4n(c3n2)[C@@H](C)[C@H](C)NC4=O)nc2ccccc21` (relative stereo) [Example 74, N-(1-ethyl-1H-benzimidazol-2-yl)- trans-8,9-dimethyl-6-oxo-6,7,8,9-tetrahydropyrido[3′,2′:4,5]pyrrolo[1,2-a]pyrazine-2-carboxamide], the IC50 worked out at 1.11 µM.

With `C[C@@H]1NC(=O)c2cc3ccc(C(=O)Nc4cnn(Cc5ccccc5)c4)nc3n2[C@H]1C` (relative stereo) [Example 62, N-(1-benzyl-1H-pyrazol-4-yl)-trans-8,9-dimethyl-6-oxo-6,7,8,9-tetrahydropyrido[3′,2′:4,5]pyrrolo[1,2-a]pyrazine-2-carboxamide], the IC50 was found to be 0.003 µM. As to `Cc1cc(NC(=O)c2ccc3cc4n(c3n2)[C@@H](C)[C@H](C)NC4=O)no1` (relative stereo) [Example 86, Trans-8,9-dimethyl-N-(5-methyl-1,2-oxazol-3-yl)-6-oxo-6,7,8,9-tetrahydropyrido[3′,2′:4,5]pyrrolo[1,2-a]pyrazine-2-carboxamide], the IC50 is 0.11 µM. As for `CC(C)n1c(NC(=O)c2ccc3nc4n(c3c2)CCCNC4=O)nc2ccccc21` [Example 4, 1-oxo-N-[1-(propan-2-yl)-1H-benzimidazol-2-yl]-2,3,4,5-tetrahydro-1H-[1,4]diazepino[1,2-a]benzimidazole-8-carboxamide], the figure is 0.033 µM. As for `O=C(Nc1cnn(Cc2ccccc2)c1)c1ccc2nc3n(c2c1)CCCNC3=O` [Example 6, N-(1-benzyl-1H-pyrazol-4-yl)-1-oxo-2,3,4,5-tetrahydro-1H-[1,4]diazepino[1,2-a]benzimidazole-8-carboxamide], the figure is 0.044 µM; as for `Cc1cc(NC(=O)c2ccc3cc4n(c3n2)[C@H](C)CNC4=O)no1` [Example 84, (9R)-9-methyl-N-(5-methyl-1,2-oxazol-3-yl)-6-oxo-6,7,8,9-tetrahydropyrido[3′,2′:4,5]pyrrolo[1,2-a]pyrazine-2-carboxamide], 0.0066 µM. The figure for `Cn1c(NC(=O)c2ccc3nc4n(c3c2)CCCNC4=O)nc2ccccc21` [Example 2, N-(1-methyl-1H-benzimidazol-2-yl)-1-oxo-2,3,4,5-tetrahydro-1H-[1,4]diazepino[1,2-a]benzimidazole-8-carboxamide] is 0.035 µM.

A word on the IC50: it is the concentration that gives 50% inhibition.
